Common to all, as to type: functional
Assay [1] in a line: Antimycobacterial activity against Mycobacterium abscessus subsp. bolletii assessed as inhibition of mycobacterial growth incubated for 2 to 3 days by broth microdilution method. Conditions: Mycobacteroides abscessus; time 2-3 day.
Assay [2] has as its system Mycolicibacterium smegmatis. The assay is described as follows: Antimycobacterial activity against Mycobacterium smegmatis CIP7326 assessed as inhibition of mycobacterial growth incubated for 24 hrs by broth microdilution method. On the technique in general: Broth dilution looks for growth in wells or tubes with falling amounts of substance.
The subject of a further assay is Pseudomonas aeruginosa. The assay can be described thus: Antibacterial activity against Pseudomonas aeruginosa ATCC 15442 assessed as inhibition of bacterial growth incubated for 24 hrs by broth microdilution method.

Values after ≈ are worked out from the molar mass of the structure shown.

Usually MIC stands for the smallest concentration in the dilution series that meets the test's criterion for growth inhibition. `CO[C@H]1/C=C/O[C@@]2(C)Oc3c(C)c(O)c4c(O)c(c(/C=N/N5CCN(C)CC5)c(O)c4c3C2=O)NC(=O)/C(C)=C\C=C\[C@H](C)[C@H](O)[C@@H](C)[C@@H](O)[C@@H](C)[C@H](OC(C)=O)[C@@H]1C` [RIFAMPIN]: the minimum inhibitory concentration (MIC) in assay [1] and in assay [2] was 0.1 µg/mL (≈ 0.122 µM) throughout.
With cetrimide, the MIC in the assay with Pseudomonas aeruginosa was 0.1 µg/mL.

For the origin of these results see ChEMBL document CHEMBL4840341, “Voatriafricanines A and B, Trimeric Vobasine-Aspidosperma-Aspidosperma Alkaloids from Voacanga africana” (J Nat Prod, 2021).
